Laboratory results published in patent US3965109A, “Certain aryl amino pyridines” (priority 1971, dated 1976).

Columns and labels:
Pseudomonas syringae = experiment: Antibacterial agar test (B6); assay type: cell-based; conditions: 50 ppm; 5 days
Streptomyces scabies = experiment: Antibacterial agar test (B7); assay type: cell-based; conditions: 50 ppm; 5 days
[1] = tested on: Plasmopara viticola (vine); experiment: Fungicidal test against foliar disease C (foliage spray plus soil drench); assay type: in vivo; conditions: 10 days
[2] = tested on: Phytophthora infestans (tomato); assay type: in vivo; conditions: 3 days
[3] = tested on: Corynebacterium michiganense; experiment: Antibacterial agar test (B2); assay type: cell-based; conditions: 50 ppm; 5 days
Description: (§1) This Example illustrates the activity of compounds used as the active ingredients of compositions according to the invention against a variety of plant bacterial diseases and fungal post-harvest saprophytic diseases. In a test for such activity, 5 milligrams of the compound to be tested was dissolved or suspended in 10 ml. of acetone and enough of this solution or suspension was added to 18 ml. of nutrient agar (for the bacterial diseases) or 16 ml. of 2% malt agar (for the fungal diseases) to give a final concentration of 50 parts per million of the compound under test. A streptomycin preparation (2 ml. containing 100 units per ml.) was added to the malt agar to prevent bacterial contamination of the fungal tests.
(§2) The agar preparations were dried overnight in Petri dishes and inoculated the following morning with the bacterial or fungal diseases using a multipoint inoculator. The antibacterial activity was assessed after 5 days and the antifungal activity after 6 days. The results of the tests are set out in Table 16 (anti bacterial activity) and Table 17 (antifungal activity). The results are graded as in Example 1 above.

[4] = tested on: Agrobacterium tumifaciens; experiment: Antibacterial agar test (B1); assay type: cell-based; conditions: 50 ppm; 5 days
Erwinia carotovora = experiment: Antibacterial agar test (B4); assay type: cell-based; conditions: 50 ppm; 5 days
[5] = tested on: Puccinia recondita (wheat); experiment: Fungicidal test against foliar disease A (foliage spray plus soil drench); assay type: in vivo; conditions: 10 days
Xanthomonas oryzae = assay type: cell-based; conditions: 50 ppm; 5 days
[6] = tested on: Piricularia oryzae (rice); assay type: in vivo; conditions: 7 days; for Amount of disease grading, disease E (Table 4): 100 ppm spray and drench
Uncinula necator (vine) = experiment: Fungicidal test against foliar disease D (foliage spray plus soil drench); assay type: in vivo; conditions: 10 days
Xanthomonas malvacearum = experiment: Antibacterial agar test (B3); assay type: cell-based; conditions: 50 ppm; 5 days
Description: as §1, §2

Wheat = experiment: Herbicidal test, pre- and post-emergence; assay type: in vivo; conditions: 10 kg/ha; scale 0 to 3 (complete kill)
[7] = tested on: Phaedon cochleariae (mustard beetles); experiment: Pest toxicity test; assay type: in vivo; conditions: in vivo
[8] = tested on: Plutella maculipennis (diamond back moth larvae); experiment: Pest toxicity test; assay type: in vivo; conditions: in vivo
Megoura viceae = experiment: Pest toxicity test; assay type: in vivo; conditions: 0.1% by weight; broad bean; 2 days
[9] = tested on: Tetranychus telarius (red spider mites, eggs); experiment: Pest toxicity test; assay type: in vivo; conditions: 0.1% by weight; French bean; 3 days
Aphis fabae = experiment: Pest toxicity test; assay type: in vivo; conditions: 0.1% by weight; broad bean; 2 days
Lettuce = experiment: Herbicidal test, pre- and post-emergence; assay type: in vivo; conditions: 10 kg/ha; scale 0 to 3 (complete kill)
[10] = tested on: Musca domestica (houseflies); experiment: Pest toxicity test, contact test; assay type: in vivo; conditions: 0.1% by weight; milk/sugar; 2 days; flies sprayed directly
[11] = tested on: Aedes aegypti (mosquito adults); experiment: Pest toxicity test; assay type: in vivo; conditions: 0.01% by weight; plywood; 1 day
[12] = tested on: Tetranychus telarius (red spider mites, adults); experiment: Pest toxicity test; assay type: in vivo; conditions: 0.1% by weight; French bean; 3 days
[13] = tested on: Aedes aegypti (mosquito larvae); experiment: Pest toxicity test; assay type: in vivo; conditions: 0.01% by weight; water; 1 day
[14] = tested on: Pieris brassicae (cabbage white caterpillars); experiment: Pest toxicity test; assay type: in vivo; conditions: 0.1% by weight, 2 days
Tomato = experiment: Herbicidal test, pre- and post-emergence; assay type: in vivo; conditions: 10 kg/ha; scale 0 to 3 (complete kill)
Maize = experiment: Herbicidal test, pre- and post-emergence; assay type: in vivo; conditions: 10 kg/ha; scale 0 to 3 (complete kill)
[15] = tested on: Agriolimax reticulatus (slugs); experiment: Molluscicidal activity test; assay type: in vivo, Agriolimax reticulatus (Mull); conditions: pellet with 4% by weight; 6 days; 10°C
Description: A weighed sample of the compound under test was dissolved in 0.5 c.c. of an ethanol and acetone mixture 50:50 v/v). The solution was diluted with 0.5 cc water and poured onto a calf feeding pellet in a glass Petri dish. The pellet was then air dried for 24 hours. The weight of compound used was chosen so that the dried pellet contained 4% by weight of the active ingredient. Two replicates each consisting of a plastic Petri dish containing a pellet, 2 slugs, and a moistened filter paper to maintain a high relative humidity were used in each test. The dishes were left in a cold room (10°C.) After 6 days the kill was assessed.
The slugs used were Agriolimax reticulatus (Mull), and they had been starved for 24 hours before the commencement of the tests.

[16] = tested on: Meloidogyne incognita (nematodes); experiment: Pest toxicity test; assay type: in vivo; conditions: 0.01% by weight; water; 1 day
[17] = 50 ppm spray + 200 ppm soil drench

| SMILES | Antibacterial activity grading B6 (Pseudomonas syringae) | Antibacterial activity grading B7 (Streptomyces scabies) | Amount of disease grading, disease C (Table 4) ([1]; 100 ppm spray and drench) | Antibacterial activity grading B2 [3] | Antibacterial activity grading B1 [4] | Antibacterial activity grading B4 (Erwinia carotovora) | Amount of disease grading, disease A (Table 4) ([5]; 100 ppm spray and drench) | Antibacterial activity grading B5 (Xanthomonas oryzae) | Amount of disease grading, disease E (Table 4) [6] | Antibacterial activity grading B3 (Xanthomonas malvacearum) | Mortality grading (kill) [7] | Mortality grading (kill) [8] | Mortality grading (kill) (Megoura viceae) | Mortality grading (kill) [9] | Mortality grading (kill) (Aphis fabae) | Mortality grading (kill), contact test [10] | Mortality grading (kill) [11] | Mortality grading (kill) [12] | Mortality grading (kill) [13] | Mortality grading (kill) [14] | other results |
| --- | --- | --- | --- | --- | --- | --- | --- | --- | --- | --- | --- | --- | --- | --- | --- | --- | --- | --- | --- | --- | --- |
| O=[N+]([O-])c1cc([N+](=O)[O-])c(Nc2c(Cl)c(Cl)nc(Cl)c2Cl)cc1F [Compound 35, 4(5-Fluoro-2,4-dinitroanilino)tetrachloropyridine] | 2 (6 to 25) | 2 (6 to 25) | 3 (0 to 5) | 0 (61 to 100) | 0 (61 to 100) | 0 (61 to 100) | 2 (6 to 25) | 1 (26 to 60) | 2 (6 to 25) | 0 (61 to 100) | – | – | – | – | – | – | – | – | – | – | Amount of disease grading, disease B (Table 4) ([2]; 100 ppm spray and drench): 3 (0 to 5); Amount of disease grading, disease D (Table 4) (Uncinula necator (vine); 100 ppm spray and drench): 0 (61 to 100) |
| O=[N+]([O-])c1cc([N+](=O)[O-])c(Nc2c(Cl)c(F)nc(F)c2Cl)cc1F [Compound 6, 3,5-Dichloro-2,6-difluoro-4(2,4-dinitro-5-fluoroanilino)pyridine] | 2 (6 to 25) | 1 (26 to 60) | – | 3 (0 to 5) | 3 (0 to 5) | 1 (26 to 60) | – | 2 (6 to 25) | – | 3 (0 to 5) | – | – | – | – | – | – | – | – | – | – | Amount of disease grading, disease C [1, 17]: 3 (0 to 5); Amount of disease grading, disease B [2, 17]: 3 (0 to 5); Amount of disease grading, disease A [5, 17]: 0 (61 to 100); Amount of disease grading, disease E [6, 17]: 3 (0 to 5); Amount of disease grading, disease D (Uncinula necator (vine); [17]): 2 (6 to 25) |
| O=[N+]([O-])c1cc(Br)c(Nc2c(Cl)c(F)nc(F)c2Cl)c([N+](=O)[O-])c1 [Compound 40, 4(2-Bromo-4,6-dinitroanilino)-3,5-dichloro-2,6-difluoropyridine] | 1 (26 to 60) | 2 (6 to 25) | 3 (0 to 5) | 2 (6 to 25) | 2 (6 to 25) | 1 (26 to 60) | 0 (61 to 100) | 2 (6 to 25) | 1 (26 to 60) | 3 (0 to 5) | 2 (key: O represents less than 30% kill; 1 represents 30 - 49% kill; 2 represents 60 - 90% kill; 3 represents over 90% kill; C indicates a chemosterilant effect.; A indicates an antifeeding effect.) | 0 (key: O represents less than 30% kill; 1 represents 30 - 49% kill; 2 represents 60 - 90% kill; 3 represents over 90% kill; C indicates a chemosterilant effect.; A indicates an antifeeding effect.) | 3 (3 represents over 90% kill) | 3 (3 represents over 90% kill) | 3 (3 represents over 90% kill) | 3 (3 represents over 90% kill) | 0 (O represents less than 30% kill) | 3 (3 represents over 90% kill) | 3 (3 represents over 90% kill) | 0 (O represents less than 30% kill) | Damage to plants, post-emergence (Wheat): 0; Damage to plants, pre-emergence (Wheat): 1; Damage to plants, post-emergence (Lettuce): 3; Damage to plants, pre-emergence (Lettuce): 3; Damage to plants, post-emergence (Tomato): 1; Damage to plants, pre-emergence (Tomato): 3; Amount of disease grading, disease D (Table 4) (Uncinula necator (vine); 100 ppm spray and drench): 3 (0 to 5); Damage to plants, post-emergence (Maize): 0; Damage to plants, pre-emergence (Maize): 1 |
| O=[N+]([O-])c1ccc(Nc2c(F)c(F)nc(F)c2F)c([N+](=O)[O-])c1 [Compound 15, 4(2,4-Dinitroanilino)-tetrafluoropyridine] | 3 (0 to 5) | 3 (0 to 5) | – | 3 (0 to 5) | 3 (0 to 5) | 3 (0 to 5) | – | 3 (0 to 5) | – | 3 (0 to 5) | 2 (key: O represents less than 30% kill; 1 represents 30 - 49% kill; 2 represents 60 - 90% kill; 3 represents over 90% kill; C indicates a chemosterilant effect.; A indicates an antifeeding effect.) | 0 (key: O represents less than 30% kill; 1 represents 30 - 49% kill; 2 represents 60 - 90% kill; 3 represents over 90% kill; C indicates a chemosterilant effect.; A indicates an antifeeding effect.) | 0 (O represents less than 30% kill) | 2 (2 represents 60 - 90% kill) | 0 (O represents less than 30% kill) | 2 (2 represents 60 - 90% kill) | 0 (O represents less than 30% kill) | 3 (3 represents over 90% kill) | 0 (O represents less than 30% kill) | 3 (3 represents over 90% kill) | % Kill of slugs [15]: 50%; Amount of disease grading, disease C ([1]; 100 ppm spray and drench): 3 (0 to 5); Amount of disease grading, disease A ([5]; 100 ppm spray and drench): 2 (6 to 25); Amount of disease grading, disease D (Uncinula necator (vine); 100 ppm spray and drench): 3 (0 to 5) |
| O=[N+]([O-])c1ccccc1Nc1c(Cl)c(F)nc(F)c1Cl [Compound 11, 3,5-Dichloro-2,6-difluoro-4(2-nitroanilino)pyridine] | – | – | – | – | – | – | – | – | – | – | 0 (key: O represents less than 30% kill; 1 represents 30 - 49% kill; 2 represents 60 - 90% kill; 3 represents over 90% kill; C indicates a chemosterilant effect.; A indicates an antifeeding effect.) | 0 (key: O represents less than 30% kill; 1 represents 30 - 49% kill; 2 represents 60 - 90% kill; 3 represents over 90% kill; C indicates a chemosterilant effect.; A indicates an antifeeding effect.) | 0 (O represents less than 30% kill) | 0 (O represents less than 30% kill) | 0 (O represents less than 30% kill) | 0 (O represents less than 30% kill) | 0 (O represents less than 30% kill) | 0 (O represents less than 30% kill) | 0 (O represents less than 30% kill) | 0 (O represents less than 30% kill) | Mortality grading (kill) [16]: 2 (2 represents 60 - 90% kill) |
